Source: patent US20230339988A1, “Metal Complexes Of Macrocycles And/Or Isoprenoids And/Or Linear Tetrapyrroles By Mechanochemistry (Grinding Or Milling), Preparation Method Thereof, Sunscreen/Concealer/UV Absorber Thereof, Self-Assembled Coating Material Thereof, Superamphiphilic Material Or Surfaces Thereof, Hair Dyeing Thereof …” (priority 2019, published 2023)

Assay: Solubility in carbon disulfide
Type: physicochemical
Conditions: test tube
From the text: Carbon disulfide is a non-polar solvent which is commonly used as solvent for metal complexes.
It is clear that all of the reactants reacted by this mechanochemical process. The mechanochemical reaction promotes a chemical change.

COc1cc(/C=C/C(=O)CC(=O)/C=C/c2ccc(O)c(OC)c2)ccc1O [Curcumin]
solubility in carbon disulfide: completely soluble
